{
  "source": "patent US11708562B2",
  "about": "“Differentiation of human embryonic stem cells” (Janssen Biotech, Inc., priority 2006, dated 2023)",
  "test_system": "H9P33, H9P44 and H9P48 cells",
  "test": "Microarray analysis of definitive endoderm on MEFs vs MATRIGEL +/- Wnt-3A (Table VI)",
  "procedure": "Controls for each group included cells plated on […]-coated dishes and cultured in MEF-conditioned medium or cells plated on MEFs and cultured in ES medium. All groups contained three biological replicates and each biological replicate was repeated on two separate gene chips.\nSample preparation, hybridization, and image analysis were performed according to the Affymetrix Human Genome U133 Plus 2.0 Array. Following normalization and a log transformation, data analysis was performed using OmniViz® software (MA) and […] (VizXLabs, WA). Significant differences in gene expression between the samples were evaluated using analysis of variance and an F-test with adjusted P-value (Benjamini and Hochberg correction) of ≤0.05. Only genes with a present call in at least one group were included in the analysis.",
  "key": {"[1]": {"details": "DE treatment in low serum, on MEFS"}, "[2]": {"details": "log format, DE treatment in low serum + AA on MATRIGEL"}},
  "data": [
    {"substance": "Activin A: a member of the TGFβ superfamily; growth factor (R&D Systems) used to differentiate human embryonic stem cells", "values": [
      {"measurement": "mean normalized intensity (log format), Homo sapiens glycophorin Erik STA (GPErik) gene", "setting": "[1]", "result": "−0.4544"},
      {"measurement": "mean normalized intensity (log format), Homo sapiens growth differentiation factor 3 (GDF3), mRNA", "setting": "[1]", "result": 2.875},
      {"measurement": "mean normalized intensity (log format), Homo sapiens haptoglobin (HP), mRNA", "setting": "[1]", "result": 0.477},
      {"measurement": "mean normalized intensity (log format), Homo sapiens haptoglobin-related protein (HPR), mRNA", "setting": "[1]", "result": "−1.196"},
      {"measurement": "mean normalized intensity (log format), Homo sapiens homeobox protein goosecoid mRNA, complete cds", "setting": "[1]", "result": 1.894},
      {"measurement": "mean normalized intensity (log format), Homo sapiens hypothetical protein FLJ10718 (FLJ10718), mRNA", "setting": "[1]", "result": 5.552},
      {"measurement": "mean normalized intensity (log format), Homo sapiens hypothetical protein FLJ10970 (FLJ10970), mRNA", "setting": "[1]", "result": 3.02},
      {"measurement": "mean normalized intensity (log format), Homo sapiens hypothetical protein FLJ11316 (FLJ11316), mRNA", "setting": "[1]", "result": 0.7553},
      {"measurement": "mean normalized intensity (log format), Homo sapiens hypothetical protein FLJ22252 similar to SRY-box containing gene 17 (FLJ22252), mRNA", "setting": "[1]", "result": 4.5979},
      {"measurement": "mean normalized intensity (log format), Homo sapiens hypothetical protein FLJ23403 (FLJ23403), mRNA", "setting": "[1]", "result": "−1.004"},
      {"measurement": "mean normalized intensity (log format), Homo sapiens lumican (LUM), mRNA", "setting": "[1]", "result": 0.9488},
      {"measurement": "mean normalized intensity (log format), Homo sapiens mRNA for GATA-6, complete cds", "setting": "[1]", "result": 5.343},
      {"measurement": "mean normalized intensity (log format), Homo sapiens mRNA for KIAA1409 protein, partial cds", "setting": "[1]", "result": "−1.032"},
      {"measurement": "mean normalized intensity (log format), Homo sapiens mRNA; cDNA DKFZp434D0818 (from clone DKFZp434D0818)", "setting": "[1]", "result": "−0.3056"},
      {"measurement": "mean normalized intensity (log format), Homo sapiens mRNA; cDNA DKFZp586J0624 (from clone DKFZp586J0624)", "setting": "[1]", "result": 3.699},
      {"measurement": "mean normalized intensity (log format), Homo sapiens matrix metalloproteinase 14 (membrane-inserted) (MMP14), mRNA", "setting": "[1]", "result": "−0.09689"},
      {"measurement": "mean normalized intensity (log format), Homo sapiens phorbolin-like protein MDS019 (MDS019), mRNA", "setting": "[1]", "result": 2.408},
      {"measurement": "mean normalized intensity (log format), Homo sapiens presenilin stabilization factor b (PSF) mRNA", "setting": "[1]", "result": 0.5675},
      {"measurement": "mean normalized intensity (log format), Homo sapiens reserved (KCNK12), mRNA", "setting": "[1]", "result": 3.78},
      {"measurement": "mean normalized intensity (log format), Homo sapiens retinoid X receptor, gamma (RXRG), mRNA", "setting": "[1]", "result": "−0.3204"},
      {"measurement": "mean normalized intensity (log format), Homo sapiens sema domain, immunoglobulin domain (Ig), short basic domain, secreted, (semaphorin) 3E (SEMA3E), mRNA", "setting": "[1]", "result": 1.276},
      {"measurement": "mean normalized intensity (log format), Homo sapiens sema domain, seven thrombospondin repeats, (semaphorin) 5A (SEMA5A), mRNA", "setting": "[1]", "result": 1.487},
      {"measurement": "mean normalized intensity (log format), Homo sapiens solute carrier family 16 (monocarboxylic acid transporters), member 3 (SLC16A3), mRNA", "setting": "[1]", "result": 1.724},
      {"measurement": "mean normalized intensity (log format), Homo sapiens solute carrier family 21 (prostaglandin transporter), member 2 (SLC21A2), mRNA", "setting": "[1]", "result": 2.433},
      {"measurement": "mean normalized intensity (log format), Homo sapiens type VI collagen alpha 2 chain precursor (COL6A2) mRNA", "setting": "[1]", "result": 2.845},
      {"measurement": "mean normalized intensity (log format), Homo sapiens, alpha-1 (VI) collagen", "setting": "[1]", "result": "−2.269"},
      {"measurement": "mean normalized intensity (log format), Homo sapiens, clone MGC: 4655, mRNA", "setting": "[1]", "result": 2.476},
      {"measurement": "mean normalized intensity (log format), Human (clone 8B1) Br-cadherin mRNA", "setting": "[1]", "result": "−1.026"},
      {"measurement": "mean normalized intensity (log format), Human (clone HSY3RR) neuropeptide Y receptor (NPYR) mRNA", "setting": "[1]", "result": 5.48},
      {"measurement": "mean normalized intensity (log format), Human DNA sequence from clone RP1-181C24 on chromosome 6p11.1-12.2 (3 end of the BMP5 gene)", "setting": "[1]", "result": "−0.3731"},
      {"measurement": "mean normalized intensity (log format), Human Fritz mRNA, complete cds", "setting": "[1]", "result": 3.915},
      {"measurement": "mean normalized intensity (log format), Human dipeptidyl peptidase IV (CD26) mRNA", "setting": "[1]", "result": "−1.256"},
      {"measurement": "mean normalized intensity (log format), Human glycophorin HeP2 mRNA, partial cds", "setting": "[1]", "result": 0.2335},
      {"measurement": "mean normalized intensity (log format), Human link protein mRNA, complete cds", "setting": "[1]", "result": "−1.263"},
      {"measurement": "mean normalized intensity (log format), Human mRNA for alpha-1 type II collagen", "setting": "[1]", "result": "−0.3802"},
      {"measurement": "mean normalized intensity (log format), Human mRNA for apolipoprotein AI (apo AI)", "setting": "[1]", "result": 2.497},
      {"measurement": "mean normalized intensity (log format), Human prostatic secretory protein 57 mRNA", "setting": "[1]", "result": "−0.4077"},
      {"measurement": "mean normalized intensity (log format), KIAA0878 protein", "setting": "[1]", "result": 4.789},
      {"measurement": "mean normalized intensity (log format), KIAA1462 protein", "setting": "[1]", "result": 0.4371},
      {"measurement": "mean normalized intensity (log format), MCP-1 = monocyte chemotactic protein", "setting": "[1]", "result": 2.955},
      {"measurement": "mean normalized intensity (log format), Rho GDP dissociation inhibitor (GDI) alpha", "setting": "[1]", "result": "−2.582"},
      {"measurement": "mean normalized intensity (log format), WAS protein family, member 2", "setting": "[1]", "result": "−1.06"},
      {"measurement": "mean normalized intensity (log format), collagen, type IX, alpha 2", "setting": "[1]", "result": 2.935},
      {"measurement": "mean normalized intensity (log format), collagen, type VI, alpha 1", "setting": "[1]", "result": 0.6042},
      {"measurement": "mean normalized intensity (log format), glycophorin B (includes Ss blood group)", "setting": "[1]", "result": "−0.1297"},
      {"measurement": "mean normalized intensity (log format), hepatocyte nuclear factor 4, alpha", "setting": "[1]", "result": 0.4452},
      {"measurement": "mean normalized intensity (log format), homeo box HB9", "setting": "[1]", "result": 1.631},
      {"measurement": "mean normalized intensity (log format), hypothetical protein FLJ21032", "setting": "[1]", "result": 2.618},
      {"measurement": "mean normalized intensity (log format), hypothetical protein FLJ23091", "setting": "[1]", "result": 3.78},
      {"measurement": "mean normalized intensity (log format), hypothetical protein FLJ23403", "setting": "[1]", "result": "−2.313"},
      {"measurement": "mean normalized intensity (log format), matrix metalloproteinase 14 (membrane-inserted)", "setting": "[1]", "result": "−0.5185"},
      {"measurement": "mean normalized intensity (log format), microfibrillar-associated protein 4", "setting": "[1]", "result": "−0.6009"},
      {"measurement": "mean normalized intensity (log format), myristoylated alanine-rich protein kinase C substrate (MARCKS, 80K-L)", "setting": "[1]", "result": 0.3357},
      {"measurement": "mean normalized intensity (log format), neuropilin 1", "setting": "[1]", "result": "−1.9667"},
      {"measurement": "mean normalized intensity (log format), noggin", "setting": "[1]", "result": 1.33},
      {"measurement": "mean normalized intensity (log format), phorbolin-like protein MDS019", "setting": "[1]", "result": 0.5035},
      {"measurement": "mean normalized intensity (log format), solute carrier family 16 (monocarboxylic acid transporters), member 3", "setting": "[1]", "result": 0.279},
      {"measurement": "mean normalized intensity (log format), splicing factor, arginineserine-rich 5", "setting": "[1]", "result": 4.272},
      {"measurement": "mean normalized intensity (log format), stanniocalcin 1", "setting": "[1]", "result": 6.143},
      {"measurement": "mean normalized intensity: DKFZP566K1924 protein", "setting": "[2]", "result": 2.882},
      {"measurement": "mean normalized intensity: ESTs, Moderately similar to ALU2_HUMAN ALU SUBFAMILY SB SEQUENCE CONTAMINATION WARNING ENTRY (H. sapiens)", "setting": "[2]", "result": 4.241},
      {"measurement": "mean normalized intensity: H. sapiens mRNA for B-HLH DNA binding protein.", "setting": "[2]", "result": 5.43},
      {"measurement": "mean normalized intensity: Homo sapiens BCL2-interacting killer (apoptosis-inducing) (BIK), mRNA.", "setting": "[2]", "result": 4.3},
      {"measurement": "mean normalized intensity: Homo sapiens Charot-Leyden crystal protein (CLC), mRNA.", "setting": "[2]", "result": 3.301},
      {"measurement": "mean normalized intensity: Homo sapiens HES-related repressor protein 1 HERP1 mRNA, complete cds.", "setting": "[2]", "result": 2.806},
      {"measurement": "mean normalized intensity: Homo sapiens HSPC156 protein (HSPC156), mRNA.", "setting": "[2]", "result": 0.7862},
      {"measurement": "mean normalized intensity: Homo sapiens KIAA0469 gene product (KIAA0469), mRNA.", "setting": "[2]", "result": 4.031},
      {"measurement": "mean normalized intensity: Homo sapiens PNAS-123 mRNA, complete cds", "setting": "[2]", "result": 1.597},
      {"measurement": "mean normalized intensity: Homo sapiens Wilms tumor 1 (WT1), transcript variant D, mRNA.", "setting": "[2]", "result": 2.405},
      {"measurement": "mean normalized intensity: Homo sapiens cDNA FLJ11398 fis, clone HEMBA1000637.", "setting": "[2]", "result": 2.5268},
      {"measurement": "mean normalized intensity: Homo sapiens cDNA: FLJ22547 fis, clone HSI00356", "setting": "[2]", "result": 4.294},
      {"measurement": "mean normalized intensity: Homo sapiens cadherin 6, type 2, K-cadherin (fetal kidney) (CDH6), mRNA.", "setting": "[2]", "result": 0.8248}
    ]}
  ]
}
